Experimental findings from patent publication US10682371B2, “Small molecule conjugates specifically activated in tumor microenvironment for targeting and use thereof” (priority 2014, dated 2020) are described below.

In experiment [1] the test system is Human breast cancer MDA-MB435 tumor tissue homogenate. In kind it is biochemical. To be noted: for Activation ratio (%) in homogenates from different tumor tissues: Human breast cancer MDA-MB435. A digest of the protocol:
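Compounds at 1 mg/ml incubated at 37° C. with 100 μg acidified (pH6.0) MDA-MB435 human breast tumor tissue homogenate, as a source of proteases for compound activation.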

Experiment [2] deals with Human chronic leukemia K562 tumor tissue homogenate. Type of experiment: biochemical. To be noted: for Activation ratio (%) in homogenates from different tumor tissues: Human chronic leukemia K562. The gist of the method: (§1)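 Activation efficiency by tissue proteases is the read-out. Each sample compound, at 1 mg/ml, was incubated with 100 μg of acid-treated homogenate at pH6.0 and 37° C.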

Experiment [3] deals with Human liver cancer Hepg2 tumor tissue homogenate. Type of experiment: biochemical. To be noted: for Activation ratio (%) in homogenates from different tumor tissues: Human liver cancer Hepg2. The gist of the method:
as §1

Experiment [4] deals with Human pancreatic cancer Panc-1 tumor tissue homogenate. In kind it is biochemical. To be noted: for Activation ratio (%) in homogenates from different tumor tissues: Human pancreatic cancer Panc-1. A digest of the protocol: as §1
Experiment [5] deals with Human renal cancer OS-RC-2 tumor tissue homogenate. Type of experiment: biochemical. To be noted: for Activation ratio (%) in homogenates from different tumor tissues: Human renal cancer OS-RC-2. A digest of the protocol: as §1
Experiment [6] deals with Human non-small cell lung cancer A549 tumor tissue homogenate. Type of experiment: biochemical. To be noted: for Activation ratio (%) in homogenates from different tumor tissues: Human non-small cell lung cancer A549. The gist of the method:
as §1

In experiment [7] the test system is Human prostate cancer PC-3 tumor tissue homogenate. In kind it is biochemical. To be noted: for Activation ratio (%) in homogenates from different tumor tissues: Human prostate cancer PC-3. A digest of the protocol:
as §1

In experiment [8] the test system is Human ovarian cancer SK-OV-3 tumor tissue homogenate. In kind it is biochemical. Particulars: for Activation ratio (%) in homogenates from different tumor tissues: Human ovarian cancer SK-OV-3. The gist of the method: as §1
The test system of experiment [9] is Human colon cancer HT-29 tumor tissue homogenate. In kind it is biochemical. To be noted: for Activation ratio (%) in homogenates from different tumor tissues: Human colon cancer HT-29. A digest of the protocol:
as §1

The subject of experiment [10] is D121 lung tumor cells. In kind it is in vivo, C57 mice. Particulars: for Effect together with PDL1-antibody in promoting immunization and treatment, in words: combination with PDL1-antibody; for Treatment effects on C57 mice, in words: compared to the control group and the other treatment groups. The gist of the method:
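Endpoint is tumor inhibition rate from tumor size (mm^3) after weekly drug treatment for 4 weeks, begun once s.c. tumors from 10^6 live D121 cells reached 0.3-0.4 cm. Before challenge, C57 mice received three i.p. doses of 5×10^5 irradiated D121 cells, two weeks apart, or saline.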

In experiment [11] the test system is tumor CD8+ T cells. In kind it is in vivo, C57 mice. The gist of the method: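 Tumour tissue homogenised and single cells filtered, washed, then stained 1 h at ambient temperature with CD45-PE and CD8-FITC antibodies. After washes in PBS with 1% FBS, flow cytometry gave the fraction of CD8⁺ cells among CD45⁺ leucocytes.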
The mark [12] stands for this setting: Table 45, 1 mg/ml, acidized homogenate, Docetaxel release by HPLC.
[13] abbreviates: Table 49, immunized C57 mice, D121, drugs 13.2 μmol/kg, PDL1 antibody 5 μg/kg, weekly for 4 weeks, Day 18.
Setting [14] is: Day 18, immunized C57 mice, drugs 13.2 μmol/kg, PDL1 antibody 5 μg/kg, weekly for 4 weeks.
[15] abbreviates: 100 μg acidized homogenate pH6.0, 1 mg/ml, 37°.
Where [16] appears, read: D121 immunized C57 mice, drugs weekly for 4 weeks, Day 18 (Example 23).

Read-outs that look alike come from different tables or passages of the source.

On to `COCCOCC(=O)N[C@H](C)C(=O)N[C@H](C)C(=O)N[C@H](CC(N)=O)C(=O)Nc1ccc(COC(=O)OC(C(=O)OC2C[C@@]3(O)[C@@H](OC(=O)c4ccccc4)[C@H]4[C@](C)(C(=O)[C@H](O)C(=C2C)C3(C)C)[C@@H](O)CC2OC[C@]24OC(C)=O)[C@@H](NC(=O)OC(C)(C)C)c2ccccc2)cc1` (stereo partly drawn) [Compound D1, 2-(2-methoxyethoxy) acetyl-L-Ala-L-Ala-L-Asn-4-amino benzyl-Docetaxel], for which the “Activation ratio (%) in homogenates from different tumor tissues” value in [1] (setting [12]) stood at 83.07%; in experiment [2] (setting [12]), 68.23%; in experiment [3] (setting [12]) it was 85.77%; in experiment [4] (setting [12]), 85.32%; in experiment [5] (setting [12]), 77.76%; in experiment [6] (setting [12]), 77.76%. Further, the “Activation ratio (%) in homogenates from different tumor tissues” value in experiment [7] (setting [12]) is listed as 87.57%; in [8] (setting [12]), 79.56%; in [9] (setting [12]), 71.46%. Moreover, in experiment [10] (setting [13]), the “Size of tumor (mm^3) Day 18” value is 324.45 mm^3. In experiment [10] (setting [13]), the “inhibitory rate on tumor % Day 18” value was found to be 77.2%. For the same compound, the “Effect together with PDL1-antibody in promoting immunization and treatment, in words” value in experiment [10] is given as “excellent synergistic effect”. In addition, in experiment [10], the “Treatment effects on C57 mice, in words” value was “greatly improved”. Besides, in experiment [11] (Table 49, CD8 positive cells in CD45 positive cells of tumor, flow cytometry, drugs 13.2 μmol/kg, PDL1 antibody 5 μg/kg), the “CD8: CD45 (%)” value is on record as 18.5%.

As to `COCCOCC(=O)N[C@H](C)C(=O)N[C@H](C)C(=O)N[C@H](CC(N)=O)C(=O)Nc1ccc(COC(=O)N2[C@@H]3CN4C5=C(C(=O)C(N)=C(C)C5=O)[C@H](COC(N)=O)[C@]4(OC)[C@@H]32)cc1` [Compound E1, 2-(2-methoxyethoxy) acetyl-L-Ala-L-Ala-L-Asn-4-amino benzyl mitomycin], the “Activation ratio (%) in homogenates from different tumor tissues” value came to 97.3% in experiment [1] (37° C., 1 mg/ml); 74.5% in experiment [2] (37° C., 1 mg/ml); 94.6% in experiment [3] (37° C., 1 mg/ml); 89.4% in [4] (37° C., 1 mg/ml); 99.7% in experiment [5] (37° C., 1 mg/ml); 97.4% in [6] (37° C., 1 mg/ml). Also, the “Activation ratio (%) in homogenates from different tumor tissues” value was 78.9% in [7] (37° C., 1 mg/ml); 93.5% in experiment [8] (37° C., 1 mg/ml); 94.2% in [9] (37° C., 1 mg/ml). In addition, in [10] (setting [14]), the “Size of tumor (mm^3) Day 18” value came out at 237.60 ± 358.57 mm^3. Moreover, the “inhibitory rate on tumor % Day 18” value in experiment [10] (setting [14]) is on record as 83.27%. The “Effect together with PDL1-antibody in promoting immunization and treatment, in words” value in [10] is “excellent synergistic effect”. Moreover, in experiment [10], the “Treatment effects on C57 mice, in words” value is “greatly improved”. Besides, in experiment [11] (ratio of CD8 positive cells in CD45 positive cells of tumor, flow cytometry, drugs 13.2 μmol/kg, PDL1 antibody 5 μg/kg), the “CD8: CD45 (%)” value came to 18.4%.

Regarding `CCCCCOC(=O)Nc1nc(=O)n([C@@H]2O[C@H](C)[C@@H](OC(=O)OCc3ccc(NC(=O)[C@H](CC(N)=O)NC(=O)[C@H](C)NC(=O)[C@H](C)NC(=O)CCCCCCC(=O)NO)cc3)[C@H]2O)cc1F` [Compound S3, 4-N—(N—(N—(N-(8-(N-hydroxylamino)-1,8-octandioic acid-1-monoacyl)-L-alanyl)-L-alanyl)-L-asparaginyl)-amino benzyl alcohol-capecitabine-carbonic acid diester], the “Activation Efficiencies (%)” value in experiment [1] (Human breast cancer MDA-MB435 tumor tissue homogenate (30 μg/ml), 1 mg/ml compound) turned out to be 70.1%; in [2] (Human chronic leukemia K562 tumor tissue homogenate (30 μg/ml), 1 mg/ml compound), 93.2%; in [3] (Human liver cancer Hepg2 tumor tissue homogenate (30 μg/ml), 1 mg/ml compound), 94.5%; in experiment [4] (Human pancreatic cancer Panc-1 tumor tissue homogenate (30 μg/ml), 1 mg/ml compound) it was 91.6%; in experiment [5] (Human renal cancer OS-RC-2 tumor tissue homogenate (30 μg/ml), 1 mg/ml compound), 67.4%; in [6] (Human non-small cell lung cancer A549 tumor tissue homogenate (30 μg/ml), 1 mg/ml compound) it was 80.7%. For the same compound, the “Activation Efficiencies (%)” value in [7] (Human prostate cancer PC-3 tumor tissue homogenate (30 μg/ml), 1 mg/ml compound) turned out to be 98.3%; in [8] (Human ovarian cancer SK-OV-3 tumor tissue homogenate (30 μg/ml), 1 mg/ml compound), 94.3%; in experiment [9] (Human colon cancer HT-29 tumor tissue homogenate (30 μg/ml), 1 mg/ml compound), 81.7%. In experiment [10] (D121 immunized C57 mice, 13.2 μmol/kg weekly, PDL1 antibody 5 μg/kg where combined, Day 18), the “Size of tumor (mm^3) Day 18” value is recorded as 425.67 ± 126.67 mm^3. Moreover, the “Treatment effects on C57 mice, in words” value in experiment [10] is on record as “greatly improved”. Further, the “CD8: CD45 (%)” value in experiment [11] (D121 immunized C57 mice, 13.2 μmol/kg, ratio of CD8 positive cells in CD45 positive cells of tumor) was 18.4%.

Consider `COCCOCCOCCOCCOCCOCC(=O)N[C@H](C)C(=O)N[C@H](C)C(=O)N[C@H](CC(N)=O)C(=O)Nc1ccc(COC(=O)OC(C(=O)OC2C[C@@]3(O)[C@@H](OC(=O)c4ccccc4)[C@H]4[C@](C)(C(=O)[C@H](OC(C)=O)C(=C2C)C3(C)C)[C@@H](O)CC2OC[C@]24OC(C)=O)[C@@H](NC(=O)c2ccccc2)c2ccccc2)cc1` (some centres unmarked) [S2′], for which the “Activation ratio (%) in homogenates from different tumor tissues” value was 91.4% in experiment [1] (setting [15]); 73.3% in experiment [2] (setting [15]); 84.6% in experiment [3] (setting [15]); 93.8% in experiment [4] (setting [15]); 91.5% in [5] (setting [15]); 89.4% in experiment [6] (setting [15]). Moreover, the “Activation ratio (%) in homogenates from different tumor tissues” value in [7] (setting [15]) is listed as 98.4%; in [8] (setting [15]), 84.6%; in experiment [9] (setting [15]), 89.9%. Moreover, in experiment [10] (setting [16]), the “Size of tumor (mm^3) Day 18” value amounted to 331.57 ± 114.74 mm^3. Further, the “inhibitory rate on tumor % Day 18” value in experiment [10] (setting [16]) was determined as 78.9%. Also, the “Treatment effects on C57 mice, in words” value in experiment [10] is “greatly improved”. The “CD8: CD45 (%)” value in experiment [11] (D121 immunized C57 mice (Example 23), CD8 positive cells in CD45 positive cells of tumor) came out at 18.1%.
